Patent US11155586B2, “Cystine knot scaffold platform” (Genentech, Inc., priority 2015, dated 2021)
Positions of bridges follow the written chain, without caps; N, C: chain ends. Residues, ends and D or L forms follow the SMILES beside them.

What was measured:
trypsin = assay: Resistance to trypsin digestion; type: in vitro ADME
Method: Approximately 20% of VEGF_CKP9.54.90 was cleaved at Arg13 within loop 2 after 24 h incubation with trypsin at 37° C.

hVEGF-A (8-109) = target: T1, hVEGF-A (8-109) (Homo sapiens, UniProt P15692); assay: SPR binding assay (BIACORE 3000, 37° C.)
T1 sequence (P15692 34-135 isoform P15692-4): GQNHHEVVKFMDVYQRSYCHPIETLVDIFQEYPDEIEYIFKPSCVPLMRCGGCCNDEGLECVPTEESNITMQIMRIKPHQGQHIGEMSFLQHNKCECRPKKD
Outline: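 VEGF-A, biotinylated and captured on streptavidin sensor or amine-coupled to CM5 at pH 5.0, to about 400 RU. Peptide concentration series in HBS-EP with 0.1% DMSO injected at […]; kinetics and affinities from 1:1 binding model fits.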

VEGF human 165 = target: T2, VEGF human 165 (Homo sapiens, UniProt P15692); assay: SPR binding assay
T2 sequence (P15692 27-191 isoform P15692-4): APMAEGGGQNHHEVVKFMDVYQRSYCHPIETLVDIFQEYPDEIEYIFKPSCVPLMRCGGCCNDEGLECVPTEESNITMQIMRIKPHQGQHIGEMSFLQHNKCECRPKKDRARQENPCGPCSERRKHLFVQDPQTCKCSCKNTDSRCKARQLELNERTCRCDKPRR
Method: (§1) Depending on the format of the assay either a streptavidin sensor (SA) or a dextran-coated (CM5) sensor was utilized as described below.
(§2) For use with the SA sensor, VEGF-A was first biotinylated (no more than 2 biotin/VEGF-A) by incubating the protein with EZ-link NHS-PEG4-Biotin (Pierce) in a 1:1.5 molar ratio respectively, in PBS for 2 hours on ice. Reaction was then quenched by addition of 10 molar excess of Glycine pH 8.0 and the sample was buffer exchanged into PBS using an Amicon 0.5 mL 3000 MWCO ultra-centrifugal filters (EMD Millipore). The biotinylation state of the protein was verified by LC-MS analysis. Biotinylated VEGF-A was then captured on the surface until a resonance unit (RU) signal of about ˜400. For immobilization of VEGF-A on CM5 sensor, the surface was first activated with a mixture of N-ethyl-N′-(3-dimethylaminopropyl)carbodiimide hydrochloride and N-hydroxysuccinimide (EDC/NHS) according to the supplier instructions. VEGF-A was then diluted into coupling buffer (0.1 M Acetate Buffer, pH 5.0) and injected until the signal reached about ˜400 RU followed by a wash with 1 M ethanolamine pH 8.0 to quench remaining activated sites.
(§3) Following the capture step, a series of the peptide concentrations were prepared in HBS-EP buffer with matching DMSO concentrations to 0.1% and injected at a flow rate of […]. The resulting sensorgrams were then analyzed using a 1:1 binding model to obtain kinetic data and affinities using Scrubber 2.0 (BioLogic Software).

rabbit VEGF-A = target: T3, rabbit VEGF-A (Oryctolagus cuniculus, UniProt G1T1L9); assay: SPR binding assay
T3 sequence (G1T1L9 1-398): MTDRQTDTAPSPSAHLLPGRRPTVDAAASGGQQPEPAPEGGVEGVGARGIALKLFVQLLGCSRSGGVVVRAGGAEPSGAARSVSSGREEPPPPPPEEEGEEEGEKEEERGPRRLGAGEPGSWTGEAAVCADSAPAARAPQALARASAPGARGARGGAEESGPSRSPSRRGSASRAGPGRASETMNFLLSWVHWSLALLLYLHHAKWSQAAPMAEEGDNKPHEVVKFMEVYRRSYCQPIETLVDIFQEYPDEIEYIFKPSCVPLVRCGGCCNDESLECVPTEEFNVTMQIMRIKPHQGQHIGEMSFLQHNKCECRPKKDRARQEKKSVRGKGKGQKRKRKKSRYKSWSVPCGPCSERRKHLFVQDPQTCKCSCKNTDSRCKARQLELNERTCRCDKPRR
Method: as §1, §2, §3

VEGF mouse 164 = target: T4, VEGF mouse 164 (Mus musculus, UniProt Q00731); assay: SPR binding assay
T4 sequence (Q00731 27-190 isoform Q00731-2): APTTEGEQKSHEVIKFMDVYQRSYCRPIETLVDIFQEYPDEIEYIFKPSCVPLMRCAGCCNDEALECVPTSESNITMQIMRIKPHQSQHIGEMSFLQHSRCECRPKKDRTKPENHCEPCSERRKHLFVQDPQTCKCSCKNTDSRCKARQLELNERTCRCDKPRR
Method: as §1, §2, §3

rat VEGF-A = target: T5, rat VEGF-A (Rattus norvegicus, UniProt P16612); assay: SPR binding assay
T5 sequence (P16612 27-139 limits assumed): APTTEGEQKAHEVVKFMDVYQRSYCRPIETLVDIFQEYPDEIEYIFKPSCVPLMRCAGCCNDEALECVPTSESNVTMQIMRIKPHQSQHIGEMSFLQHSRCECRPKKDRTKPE
Method: as §1, §2, §3

VEGF-A and KDR = target: T6, VEGF-A and KDR (Homo sapiens, UniProt P15692); assay: Competition ELISA, KDR-VEGF interaction; type: binding
T6 sequence (P15692 207-395): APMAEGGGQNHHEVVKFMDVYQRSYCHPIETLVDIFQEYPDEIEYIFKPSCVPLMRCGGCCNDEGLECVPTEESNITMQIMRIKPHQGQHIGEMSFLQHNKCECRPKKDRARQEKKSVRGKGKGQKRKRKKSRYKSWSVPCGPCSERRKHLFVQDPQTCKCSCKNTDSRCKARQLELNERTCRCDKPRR
Method: Binding specificity of each peptide was established by competition ELISA. […] After blocking with block buffer (PBS with 0.5% BSA and 0.05% TWEEN®20) for 2 hours at room temperature, the receptor-Fc fusions or biotinylated receptors were serially diluted using assay buffer (PBS with 0.5% BSA and 0.05% TWEEN®20) and incubated for 1 hour at room temperature. […] Competition ELISA was conducted in an identical fashion as described above except after blocking, a mixture of serially diluted peptide containing a constant concentration of receptor-Fc fusion or biotinylated receptor (concentration of receptor was set to EC60) was added and incubated for 1 hour. All recombinant human proteins and antibodies were purchased from R &D Systems (Minneapolis, Minn.).

CC[C@H](C)[C@@H]1NC(=O)[C@H](CC(N)=O)NC(=O)[C@@H](NC(=O)CN)CSSC[C@@H](C(=O)N[C@H](C(=O)N[C@H]2CSSC[C@@H](C(=O)NCC(=O)O)NC(=O)[C@H](CO)NC(=O)[C@H](CCC(N)=O)NC(=O)[C@H](Cc3ccc(O)cc3)NC(=O)[C@H](Cc3ccc(O)cc3)NC(=O)[C@H](CCC(N)=O)NC2=O)C(C)C)NC(=O)CNC(=O)[C@H](C)NC(=O)[C@H](CC(C)C)NC(=O)[C@@H]2CSSC[C@H](NC(=O)CNC(=O)[C@H](Cc3c[nH]c4ccccc34)NC(=O)[C@H](Cc3ccccc3)NC(=O)[C@@H]3CCCN3C(=O)[C@H](CC(C)C)NC(=O)[C@H](CCSC)NC1=O)C(=O)NCC(=O)N[C@@H](CCCNC(=N)N)C(=O)N[C@@H](CC(=O)O)C(=O)N[C@@H](Cc1ccccc1)C(=O)N[C@@H](CCC(=O)O)C(=O)N2 [VEGF_CKP9.54.90] (H-GCNIMLPFWGCGRDFECLAGCVCQYYQSCG-OH; disulfide 2-21, 11-17, 23-29; N-terminus and C-terminus assumed)
metabolised at 24 h (trypsin; 24 h incubation with trypsin at 37° C., read-out: fraction cleaved at Arg13 within loop 2): ~20% | resistance to trypsin digestion (trypsin; FIG. 4): maintain a degree of resistance | Kd (hVEGF-A (8-109); KD (nM), hVEGF-A WT): 0.37 nM | Kd (hVEGF-A (8-109); KD (nM), human 8-109, Table 30): 0.87 nM | Kd (hVEGF-A (8-109); KD, Table 37, surface plasmon resonance, VEGF-A): 0.4 ± 0.08 nM | kd (hVEGF-A (8-109); Table 37, surface plasmon resonance, VEGF-A): 0.17 | kd (hVEGF-A (8-109); hVEGF-A WT): 0.0300 | kd (hVEGF-A (8-109); human 8-109, Table 30): 4.05 × 10^−2 | Kd (VEGF human 165): 0.89 nM | ka (VEGF human 165; human 165, Table 30): 1.58 × 10^7 | kd (VEGF human 165; human 165, Table 30): 1.33 × 10^−2 | Kd (rabbit VEGF-A): 1.14 nM | ka (rabbit VEGF-A; rabbit, Table 30): 5.15 × 10^7 | kd (rabbit VEGF-A; rabbit, Table 30): 6.75 × 10^−2 | Kd (VEGF mouse 164): 1.31 nM | ka (VEGF mouse 164; mouse 164, Table 30): 8.71 × 10^6 | kd (VEGF mouse 164; mouse 164, Table 30): 1.01 × 10^−2 | Kd (rat VEGF-A): 0.9 nM | ka (rat VEGF-A; rat, Table 30): 1.72 × 10^7 | kd (rat VEGF-A; rat, Table 30): 1.35 × 10^−2 | IC50 (VEGF-A and KDR): 0.2 nM | disruption of the interaction between VEGF-A and KDR (VEGF-A and KDR; FIGS. 2A and 2B): disrupts
